Results published in PubChem BioAssay (NCI).
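Growth conditions: 96-well plates. Treatment: test compound, 48 hours, 5 concentrations. Analysis: linear interpolation between bracketing concentrations; unreached endpoints set to highest concentration. TGI: concentration producing complete growth inhibition.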

Assays:
Test in all cases: DTP human tumour cell line panel, 48 h
RXF 393 renal = test system: RXF 393 renal
NCI-H522 lung = test system: NCI-H522 lung
SK-MEL-2 melanoma = test system: SK-MEL-2 melanoma
HCT-116 colon = test system: HCT-116 colon
MALME-3M melanoma = test system: MALME-3M melanoma
RPMI-8226 leukemia = test system: RPMI-8226 leukemia
NCI-H226 lung = test system: NCI-H226 lung
CAKI-1 renal = test system: CAKI-1 renal
NCI/ADR-RES ovarian = test system: NCI/ADR-RES ovarian
MDA-N = test system: MDA-N
786-0 renal = test system: 786-0 renal

Row | SMILES | TGI (RXF 393 renal) | TGI (NCI-H522 lung) | TGI (SK-MEL-2 melanoma) | TGI (HCT-116 colon) | TGI (MALME-3M melanoma) | TGI (RPMI-8226 leukemia) | TGI (NCI-H226 lung) | TGI (CAKI-1 renal) | TGI (NCI/ADR-RES ovarian) | TGI (MDA-N) | TGI (786-0 renal)
1 | O=C(/C=C/c1ccccc1)C[C@@H](O)C[C@@H]1CC=CC(=O)O1 | > 23 µM | 6.9 µM | 33.9 µM | 6.38 µM | 30.6 µM | > 24.5 µM | > 100 µM | 27.6 µM | > 85.5 µM | 14.3 µM | 12 µM
2 | CCCCCC1=CC(=O)C1(Cl)Cl | 35.3 µM | 15.8 µM | 47.7 µM | 28.4 µM | 27.4 µM | 7.87 µM | 41.5 µM | 23.3 µM | 86.6 µM | 28.3 µM | 35.8 µM
3 | C#CCn1c(=O)c2ccccc2n(CC#C)c1=O | > 10 µM | > 10 µM | > 10 µM | > 10 µM | > 10 µM | > 10 µM | > 10 µM | > 10 µM | > 10 µM | > 10 µM | > 10 µM
4 | Nc1nc2c(c(-c3cccc(Cl)c3)n1)COC/C2=C\c1cccc(Cl)c1 | > 100 µM | > 100 µM | > 100 µM | > 100 µM | 81.9 µM | > 100 µM | > 100 µM | > 100 µM | > 100 µM | > 100 µM | > 100 µM
5 | O=C(N/N=C/c1ccc(Cl)cc1)c1c(Cl)c(Cl)c(Cl)c(Cl)c1-c1nc2ccccc2[nH]1 | > 100 µM | > 100 µM | > 100 µM | > 100 µM | > 100 µM | > 100 µM | > 100 µM | > 100 µM | > 100 µM | > 100 µM | > 100 µM
